The source of these data is article PMC7803973, “Structural basis of malaria parasite phenylalanine tRNA-synthetase inhibition by bicyclic azetidines” (Nature Communications, 2021).

Data set [1] has as its system parasite. Further details: method as in PMID 27602946. As to conditions: increasing concentrations of L-Phe; cited from earlier work.
Data set [2] relates to N[C@@H](Cc1ccccc1)C(=O)O. In words: Kinetic parameter (Km) determination, malachite green. In kind it is biochemical, Plasmodium falciparum. As to conditions: other: PfcFRS mutant (L550V); ATP saturating 500 μM; pH 7.5; 37.0 °C. Here is the method:
(§1) In both cases the reaction was carried out for 2 h at 37 °C. Data were fitted to Michaelis–Menten equations using Prism graph 6.0 software.

Data set [3] has as its system PfcFRS mutant (L550V). The data set is described as above. As to conditions: PfcFRS-L550V versus PfcFRS WT. In kind it is biochemical, Plasmodium falciparum. The method, then:
as §1

Data set [4] has as its system Plasmodium falciparum strain 3D7. In words: Parasite growth inhibition (drug susceptibility test, pLDH readout). In kind it is cell-based. The conditions noted are these: 3D7; for IC50: Plasmodium falciparum. The method, then:
(§2) The cultivation of P. falciparum was conducted according to Trager’s method with some modification. Precisely, parasites were kept in culture flasks with RPMI1640 medium supplemented with 10% human plasma and 2% fresh human erythrocytes and incubated at 37 °C with the gas condition of 5% CO2 and 5% O2. The parasitemia (percentage of infected erythrocytes to total erythrocytes) were kept within 0.25–10%. Culture medium was replaced, and fresh erythrocytes were supplied every 2–3 days. Drug susceptibility test was conducted according to Desjardins’s method[18] with some modification. […] […] The plates were kept at 37 °C with the gas condition of 5% CO2 and 5% O2 for 72 h and then parasite growth was quantified with Makler’s method to detect plasmdoial lactate dehydrogenase[19] with some modification. Precisely, culture plates were kept in freezer overnight and then thawed at 37 °C to disrupt the erythrocytes and parasite cells. In the new 96-well titer plates, 100 μl of enzyme reaction solution (110 mM Li-lactate, 0.5 mM acetylpyridine-adenine dinucleotide, 50 mM Tris (pH 7.5), 10 mM EDTA, 50 mM KCl, and 15 g l^−1 PEG6000) and 20 µl of freeze-thaw culture were mixed in each well and then kept at room temperature for 30 min. The detection solution was prepared by mixing equal volume of 2 mg ml^−1 nitro blue tetrazolium and 0.1 mg ml^−1 phenazine ethosulfate and 20 µl of the solution was added to each well.

The test system of data set [5] is Plasmodium falciparum strain K1. In words: microbe, parasite or virus in culture. In kind it is cell-based. The conditions noted are these: K1; for IC50: Plasmodium falciparum. Here is the method: as §2
Data set [6] concerns the molecule itself. In words: crystal structure; PvcFRS with BRD1389 and Mg2+, space group P2(1)2(1)2, one αβ heterodimer per asymmetric unit, 3.0 Å.
Data set [7] deals with the molecule itself. As to the kind of experiment: SEC; purified PvcFRS on a Superdex 200 analytical gel filtration column.
Substrate in data set [8]: N[C@@H](Cc1ccccc1)C(=O)O
In words: Kinetic parameter (Km) determination, malachite green. In kind it is biochemical, Plasmodium falciparum. The conditions noted are these: other: PfcFRS WT; ATP saturating 500 μM; pH 7.5; 37.0 °C. Here is the method:
as §1

Where “and” joins values, the source holds several entries; their conditions need not be identical. Identical values can stand only once.

Consider `COc1ccc(NC(=O)N2CCCCN3[C@H](CN)[C@H](c4ccc(C#Cc5ccccc5)cc4)[C@@H]3C2)cc1` [BRD1095], for which, in data set [1], the “EC50 shift with L-Phe” value is “higher EC50 values with increasing concentrations of L-Phe”.

In the case of “PfcFRS mutant (L550V) (Plasmodium falciparum 3D7; L550V)”, the Michaelis-Menten constant (Km) in data set [2] was 1.85 ± 0.84 µM.

For `N[C@@H](Cc1ccccc1)C(=O)O` [L-Phe, L-phenylalanine], the “increase in Km value for L-Phe, mutant vs WT” value in data set [3] is 10 fold and ~ 10 fold.

Regarding `CCN(CC)CCCC(C)Nc1ccnc2cc(Cl)ccc12` (centres unmarked) [Chloroquine, chloroquine], the half-inhibitory concentration (IC50) in data set [4] is 0.00914 µg/mL and 17.7 nM; in data set [5], 0.139 µg/mL and 269 nM.

As for `C[C@@H]1CC[C@H]2[C@@H](C)C(=O)O[C@@H]3O[C@@]4(C)CC[C@@H]1[C@]32OO4` [Artemisinin, artemisinin], the “% Parasite Growth” value in data set [4] (0.000195313 ug/mL) is on record as 91.8%; in data set [4] (0.000390625 ug/mL) it was 88.1%; in data set [4] (0.00078125 ug/mL) it was 90.1%; in data set [4] (0.0015625 ug/mL), 91.8%; in data set [4] (0.003125 ug/mL) it was 91.0%; in data set [4] (0.00625 ug/mL) it was 92.6%. The “% Parasite Growth” value in data set [4] (0.0125 ug/mL) came out at 61.0%; in data set [4] (0.025 ug/mL) it was 3.0%; in data set [4] (0.05 ug/mL), 2.5%; in data set [4] (0.1 ug/mL) it was 2.3%; in data set [4] (0.2 ug/mL) it was 2.8%; in data set [5] (0.000195313 ug/mL) it was 95.0%. Also, the “% Parasite Growth” value in data set [5] (0.000390625 ug/mL) is 92.3%; in data set [5] (0.00078125 ug/mL), 92.8%; in data set [5] (0.0015625 ug/mL) it was 94.4%; in data set [5] (0.003125 ug/mL), 92.0%; in data set [5] (0.00625 ug/mL) it was 76.5%; in data set [5] (0.0125 ug/mL), 6.1%. In addition, the “% Parasite Growth” value in data set [5] (0.025 ug/mL) is on record as 2.9%; in data set [5] (0.05 ug/mL) it was 3.5%; in data set [5] (0.1 ug/mL) it was 3.3%; in data set [5] (0.2 ug/mL) it was 3.6%. For the same molecule, the IC50 in data set [4] was 0.0143 µg/mL and 50.5 nM; in data set [5], 0.00811 µg/mL and 28.7 nM.

B1: PvcFRS αβ heterodimer as in the crystal (alpha subunit without residues 1-270) (complex, Plasmodium vivax)
chain 1: LTYLLIKNEEYKKYQVKKYNFFSSGKKMNKGNIHLLIRQMRTFKDVFVSLGFEEMNTHNYVESSFWCFDALYIPQQHPSRDLQDTFFIKVPEMCQEEFTDQSYIENVKRVHSVGDYGSFGWNYQWELKSTKKNVLRTHTTANSCRALFQLAKEYQKTGSIIPKKFFSIDRVFRNENLDSTHLAEFHQVEGLIIDRNLGLSHLIGTLSAFYKYIGISKLRFKPTFNPYTEPSMEVYGYHEENKKWLEVGNSGIFRPEMLRAMGFPPEVSVIAWGLSLERPTMIKYSIRNIRDLFGYRSVI
chain 2: MPTISVHEEDLIEKLGEKIEEEKLNDICFEFGIEIDDVEYKGEKKIYKIEVPANRYDLVCVEGLCRALKSFIGKYENVSYALLTNSEEACVKEKHFMRVDESVDERRSYVVSAVLKNVKMNENVYNNIIELQEKLHHNLGKKRILLAIGIHDYDKINFPVAYKFEEKEKINFIPLNETQNVNGNNFINFYQDNINLKSYLKIISDFEKFPVIVDAGGQILSLPPIINCDYTKITYDTRNLFIECTAIDRNKAEIAVNIICSMLSEYCTPKYSIHSFFVQYDKNHKAEKGNGYLYPVFKNKTLTCHMDYVRKLSGILNLSVKDVEPLLKKMMITSKVIDSSTFTVDVPFYRSDIMHFCDIVEDIAIAYGYGNIVSEKIEIAKKNSLSACTELFRNVLAECTYTEVMTNALLSKRENYDCMLRKHRSYDDRKINLDEYNPLAPPVQIMNSKTSEYEIVRTSLIVNMLKFVSANKHRELPLRFFEIGDVSYTTYDRTDTNAVNKRYLSVIFADKFTAGLEEAHGMLETVLKEFQLFSDYKIEEKSKENVAIRSDVFYKLVPKEDPSFLNERVVDIVLCPHNLKFGIMGIIHPKVLENFSIDIPVSVIEINIETIMDVLMM
notes: PvcFRS alpha subunit, Plasmodium vivax, gene PVX_081300; N-terminal domain (residues 1-270) absent in the crystal; PvcFRS beta subunit, Plasmodium vivax, gene PVX_090880, full length; also called heterodimer (αβ); PvcFRS-BRD1389 complex; source: E. coli B834, both subunits co-expressed, purified (Ni-NTA, heparin); crystallised with BRD1389 and MgCl2
With B1, in data set [6], the binding result is “binds”.

B2: PvcFRS αβ heterodimer (full-length subunits) (complex, Plasmodium vivax)
chain 1: MQAKAQEEQKGEELSQFLQALEEEFALCQEGGGDKREADGPSLENAEAEELANRRAYYLQLKEERNVLVEESKHVTSLHMSSKHNIEHAKVLGMAKKLETLYYVVNHVRSFNTYQLTEEGKEYLRDGSPEHVTLRYVMEQEGCTLEDLKKLFGKKGEIGLNINLKKKKIELRKSDKRLFPHVEGSAHSLVDETRCYLQKVEAHGNDEGALVSHLKGILPPEKGEKKEEDEANNLIKELKKRKLIEAKKISYIYIIRTNLFTKEIKKQITDLTYLLIKNEEYKKYQVKKYNFFSSGKKMNKGNIHLLIRQMRTFKDVFVSLGFEEMNTHNYVESSFWCFDALYIPQQHPSRDLQDTFFIKVPEMCQEEFTDQSYIENVKRVHSVGDYGSFGWNYQWELKSTKKNVLRTHTTANSCRALFQLAKEYQKTGSIIPKKFFSIDRVFRNENLDSTHLAEFHQVEGLIIDRNLGLSHLIGTLSAFYKYIGISKLRFKPTFNPYTEPSMEVYGYHEENKKWLEVGNSGIFRPEMLRAMGFPPEVSVIAWGLSLERPTMIKYSIRNIRDLFGYRSVI
chain 2: B1 chain 2
notes: PvcFRS alpha subunit, Plasmodium vivax, gene PVX_081300, full length; PvcFRS beta subunit, Plasmodium vivax, gene PVX_090880, full length; The heterodimer that pairs with itself to the (αβ)2 heterotetramer in solution; also called heterodimer (αβ); source: E. coli B834, both subunits co-expressed, purified (Ni-NTA, heparin)
For B2, in data set [7], the “stoichiometry N” value was determined as 2.

B3: PfcFRS wild type (WT) (Plasmodium falciparum 3D7) (protein)
chain: MSTNNVEEKKNEELYNLLNILEEEFNLSKIENKNNNKNDDGDDDDVNKREDNNNNEYYKKLKDEKGLDVLINEYTTSLKISKKYNIDHNKVMGMIKKLETLYYIINLIKSFNTYHLSDEGKQYLKEGSPEFIVIKYVIQNNKCTLEDLKKNLGKIGDIGLNTNLKNRTIQLNKADKCLTCNCNLHDIQDFTQIYLDIINQYGHDEELLFAHLKNKNHTKNALNNNEMKNSCKDNNIINNLIQDLKKRKLLEIKKNSYSHVIKTSIFKKDIKKQITDINYLLLKNEEYKKYDIKKYNFFSSGKKINKGNIHLLTKQMRTFKEIFFSLGFEEMETHNYVESSFWCFDALYIPQQHPSRDLQDTFFIKEPETCIDKFVDTEYIDNIKRVHTHGDYGSFGWNYKWKLEESKKNVLRTHTTANSCRALFKLAKEYKEAGCIKPKKYFSIDRVFRNENLDSTHLAEFHQVEGLIIDKNIGLSHLIGTLAAFYKHIGIHKLKFKPTFNPYTEPSMEIYGYHEQSKKWLEVGNSGIFRPEMLRSMGFSEEVSVIAWGLSLERPTMIKYNIKNIRDLFGYKSVV
Regarding B3, the Michaelis constant (Km) in data set [8] is listed as 0.25 ± 0.017 µM.
